From patent US11524966B1 (Valo Early Discovery, Inc., priority 2017, dated 2022) come the findings set out here.

This assay concerns the target T1, USP28 (USP28-5(1-1077)-TEV-6*His; LifeSensors) (Homo sapiens, UniProt Q96RU2).
T1 construct: construct USP28 (USP28-5(1-1077)-TEV-6*His; LifeSensors); TEV cleavage site (C); 6xHis (C); purchased LifeSensors
T1 sequence (Q96RU2 1-1077): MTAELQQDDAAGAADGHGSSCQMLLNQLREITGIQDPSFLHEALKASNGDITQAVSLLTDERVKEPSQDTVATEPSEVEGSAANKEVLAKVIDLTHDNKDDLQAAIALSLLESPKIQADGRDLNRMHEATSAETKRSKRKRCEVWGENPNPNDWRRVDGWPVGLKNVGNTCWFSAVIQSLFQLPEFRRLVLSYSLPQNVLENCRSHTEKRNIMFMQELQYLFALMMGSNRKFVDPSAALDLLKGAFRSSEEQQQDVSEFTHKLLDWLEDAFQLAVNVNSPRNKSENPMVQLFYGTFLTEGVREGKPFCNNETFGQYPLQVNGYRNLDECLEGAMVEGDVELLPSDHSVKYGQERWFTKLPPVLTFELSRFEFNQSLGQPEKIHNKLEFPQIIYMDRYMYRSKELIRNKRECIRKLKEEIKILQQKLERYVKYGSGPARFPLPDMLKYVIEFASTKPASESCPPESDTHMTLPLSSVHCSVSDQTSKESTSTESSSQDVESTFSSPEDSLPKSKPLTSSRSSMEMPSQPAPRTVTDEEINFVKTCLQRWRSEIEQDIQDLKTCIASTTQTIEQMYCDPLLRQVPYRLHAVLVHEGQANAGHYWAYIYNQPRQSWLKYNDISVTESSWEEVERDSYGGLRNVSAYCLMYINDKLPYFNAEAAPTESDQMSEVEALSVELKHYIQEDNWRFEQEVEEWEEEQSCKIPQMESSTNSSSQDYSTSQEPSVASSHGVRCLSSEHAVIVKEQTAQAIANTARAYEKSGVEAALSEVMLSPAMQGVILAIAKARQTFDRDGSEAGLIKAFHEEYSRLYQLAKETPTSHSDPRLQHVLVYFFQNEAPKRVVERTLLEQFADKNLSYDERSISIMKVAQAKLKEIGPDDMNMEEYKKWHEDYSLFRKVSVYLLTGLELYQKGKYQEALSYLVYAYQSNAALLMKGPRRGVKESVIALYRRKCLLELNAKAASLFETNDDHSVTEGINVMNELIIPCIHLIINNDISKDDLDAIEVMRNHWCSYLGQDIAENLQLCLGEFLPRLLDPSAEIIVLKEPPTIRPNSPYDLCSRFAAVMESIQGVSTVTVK
Put plainly: Ubiquitin-Rhodamine 110 Assay for USP28 Activity, Example A-1(b). The class given is biochemical. The conditions noted are these: Ubiquitin-Rhodamine 110 assay, Example A-1(b). The method in brief:
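Single-point screening used 10 μM compound with 90 min room-temperature incubation; follow-up dose-responses (25 μM top, 3-fold) used 75 pM USP28 1-1077 construct, 30 min compound preincubation, 25 nM Ub-Rh110, 20 min reaction, citric acid quench. Rh110 fluorescence normalised to no-enzyme and DMSO controls; IC50 from 4-parameter logistic fit.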

Take `Cc1ccc2c(N)c(C(=O)N[C@H]3COc4c(F)c(N5CCNCC5)cc(F)c4C3)sc2n1` [Example 55, (R)-3-amino-N-(5,8-difluoro-7-(piperazin-1-yl)chroman-3-yl)-6-methylthieno[2,3-b]pyridine-2-carboxamide]: the “USP28 A-1(b) IC50 range” value is given as “++++ (0.001-0.05 μM)”.
With `Nc1c(C(=O)N[C@H]2COc3cc(N4CCNCC4)ccc3C2)sc2nc(C3CC3)sc12` [Example 45], the “USP28 A-1(b) IC50 range” value is given as “++ (0.2-2 μM)”.
